Reference: patent US20250326777A1, “COMPOUNDS, COMPOSITIONS AND METHODS THEREOF” (HEPAITECH (BEIJING) BIOPHARMA TECHNOLOGY CO., LTD., priority 2022, published 2025)

Target: T1, human MRGPRX4 (Homo sapiens, UniProt Q96LA9)
T1 construct: expressed in transfected cells
Assay: MRGPRX4 antagonist calcium (FLIPR, Fluo-8) assay in HEK293T cells stably expressing human MRGPRX4, agonist 0.2 μM deoxycholic acid-3-phosphoric acid
Type: cell-based
Conditions: HEK293T cells stably expressing human MRGPRX4; antagonist mode; top conc. 30 μM, ten 3-fold serial dilutions; C may also mean <40% inhibition at 2 μM; read-out: Antagonist activity (IC50 class)
Experimental: HEK293T cells stably expressing human MRGPRX4 were cultured in DMEM medium supplements with 10% FBS, 100 U/mL penicillin-streptomycin, 20 mM HEPES and 1 μg/mL puromycin at 37° C. with 5% (v/v) CO2. One day before test, the cells were detached using TrypLE™ Express and counted using cell counter. In a 384-well plate cells were seeded at a density of 20,000 cells/well in 20 uL/well planting medium (DMEM medium supplements with 5% FBS, 100 U/mL penicillin-streptomycin and 20 mM HEPES), and incubated overnight at 37° C. with 5% (v/v) CO2. On the day of experiments, the dye solution, prepared following the manufacture's instruction of the Screen Quest™ Fluo-8 No Wash Calcium Assay Kit, was added to each well (20 μL/well) of the cell plate. The cell plate was incubated at 25° C. for 1 hour. Test compounds in different doses were transferred to the cell plate by FLIPR and the plate was kept in the dark at 25° C. for 30 minutes. The agonist solution, 0.2 μM of deoxycholic acid-3-phosphoric acid in assay buffer, was added to each well of the plate. The plate was read for 160 sec with 1 sec interval to obtain data of antagonist mode in FLIPR. For various compounds, IC50 values were calculated by fitting % inhibition against log of compound concentrations (top conc. 30 μM, ten 3-fold serial dilutions) with Hill equation using XLfit. […] Those skilled in the art appreciate that IC50 of various compounds can be assessed in accordance with the present disclosure.

T1 sequence (Q96LA9 whole entry): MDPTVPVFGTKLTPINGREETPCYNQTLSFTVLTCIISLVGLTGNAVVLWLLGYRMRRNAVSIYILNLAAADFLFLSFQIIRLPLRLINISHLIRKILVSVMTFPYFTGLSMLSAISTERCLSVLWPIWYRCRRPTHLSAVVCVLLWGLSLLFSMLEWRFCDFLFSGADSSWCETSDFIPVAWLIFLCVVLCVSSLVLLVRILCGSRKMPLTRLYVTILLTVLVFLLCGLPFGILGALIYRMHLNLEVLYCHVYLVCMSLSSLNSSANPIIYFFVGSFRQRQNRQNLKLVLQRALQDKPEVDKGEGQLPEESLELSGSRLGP

Row | IC50 | SMILES
1 | > 10 µM | O=C(O)c1cccc(-c2cc3ccc(C(F)(F)F)cc3n2C2CCCC2)c1F [Example 32]
2 | 1 to 10 µM | O=C(O)c1cc(F)cc(C2Cc3cc(C(F)(F)F)ccc3O2)c1 (stereo not shown) [Example 57]
3 | 1 to 10 µM | O=C(O)c1ccc(-c2cc3ccc(C(F)(F)F)cc3n2C2CCCC2)cc1 [Example 27]
4 | > 10 µM | O=C(O)c1cccc(C2Cc3cc(F)ccc3O2)c1F (stereo not shown) [Example 79]
5 | > 10 µM | COc1c(C(=O)O)cccc1C1Cc2cc(C(F)(F)F)ccc2O1 (stereo not shown) [Example 56]
6 | > 10 µM | Cn1c(-c2ccc(C(=O)O)cc2)c(F)c2ccc(C(F)(F)F)cc21 [Example 37]
7 | > 10 µM | O=C(O)c1cccc(-c2cc3ccc(C(F)(F)F)cc3o2)c1 [Example 51]
8 | 1 to 10 µM | CCCn1c(-c2ccc(C(=O)O)c(F)c2)cc2ccc(C(F)(F)F)cc21 [Example 19]
9 | > 10 µM | O=C(O)c1cc(Br)cc(-c2nc3cc(C(F)(F)F)c(Cl)cc3s2)c1 [Example 48]
10 | 1 to 10 µM | O=C(O)c1cccc(C2Cc3cc(Cl)ccc3O2)c1F (stereo not shown) [Example 63]
11 | > 10 µM | O=C(O)c1ccc(C2Cc3ccc(C(F)(F)F)cc3N2)cc1 (stereo not shown) [Example 41]
12 | > 10 µM | Cn1c(-c2ccc(C(=O)O)cc2)cc2c(-c3ccccc3)cccc21 [Example 22]
13 | 1 to 10 µM | CC1(c2cccc(C(=O)O)c2F)Cc2cc(C(F)(F)F)ccc2O1 (stereo not shown) [Example 86]
14 | 1 to 10 µM | Cn1c(-c2ccc(C(=O)O)cc2)cc2ccc(C(F)(F)F)cc21 [Example 1]
15 | 1 to 10 µM | CC(C)n1c(-c2ccc(C(=O)O)cc2)cc2ccc(C(F)(F)F)cc21 [Example 5]
16 | > 10 µM | O=C(O)c1ccc(-c2cc3ccc(C(F)(F)F)cc3n2Cc2ccccc2)cc1 [Example 26]
17 | > 10 µM | O=C(O)c1ccc(-c2nc3cc(C(F)(F)F)cc(Cl)c3o2)cc1 [Example 47]
18 | > 10 µM | Cc1c(-c2ccc(C(=O)O)cc2)n(C)c2cc(C(F)(F)F)ccc12 [Example 39]
19 | > 10 µM | O=C(O)c1cccc(C2Cc3cc(C(F)(F)F)ccc3O2)c1F (stereo not shown) [Example 87]
20 | > 10 µM | O=C(O)c1cc(C2CCCC2)cc(C2Cc3cc(C(F)(F)F)ccc3O2)c1 (stereo not shown) [Example 65]
21 | > 10 µM | CCCn1c(-c2ccc(C(=O)O)cc2)cc2ccc(-c3ccccc3)cc21 [Example 23]
22 | > 10 µM | Cn1c(-c2cccc(C(=O)O)c2)cc2ccc(C(F)(F)F)cc21 [Example 4]
23 | > 10 µM | Cn1cc(-c2cc(C(=O)O)cc(C3Cc4cc(C(F)(F)F)ccc4O3)c2)cn1 (stereo not shown) [Example 69]
24 | > 10 µM | O=C(O)c1c(F)ccc(C2Cc3cc(C(F)(F)F)ccc3O2)c1F (stereo not shown) [Example 85]
25 | 1 to 10 µM | O=C(O)c1ccc(-c2cc3ccc(C(F)(F)F)cc3n2C2CCC2)cc1 [Example 28]
